The term IC50 denotes the midpoint of a concentration-inhibition curve.

IC50 and hERG data for 16 compounds are collected here from patent US20080125432A1 (Devgen NV, priority 2004, published 2008).

The target in one data set is T1, hERG potassium channel (Homo sapiens, UniProt Q12809).
T1 construct: host or cells: HEK 293 T-REx
T1 sequence (Q12809 whole entry): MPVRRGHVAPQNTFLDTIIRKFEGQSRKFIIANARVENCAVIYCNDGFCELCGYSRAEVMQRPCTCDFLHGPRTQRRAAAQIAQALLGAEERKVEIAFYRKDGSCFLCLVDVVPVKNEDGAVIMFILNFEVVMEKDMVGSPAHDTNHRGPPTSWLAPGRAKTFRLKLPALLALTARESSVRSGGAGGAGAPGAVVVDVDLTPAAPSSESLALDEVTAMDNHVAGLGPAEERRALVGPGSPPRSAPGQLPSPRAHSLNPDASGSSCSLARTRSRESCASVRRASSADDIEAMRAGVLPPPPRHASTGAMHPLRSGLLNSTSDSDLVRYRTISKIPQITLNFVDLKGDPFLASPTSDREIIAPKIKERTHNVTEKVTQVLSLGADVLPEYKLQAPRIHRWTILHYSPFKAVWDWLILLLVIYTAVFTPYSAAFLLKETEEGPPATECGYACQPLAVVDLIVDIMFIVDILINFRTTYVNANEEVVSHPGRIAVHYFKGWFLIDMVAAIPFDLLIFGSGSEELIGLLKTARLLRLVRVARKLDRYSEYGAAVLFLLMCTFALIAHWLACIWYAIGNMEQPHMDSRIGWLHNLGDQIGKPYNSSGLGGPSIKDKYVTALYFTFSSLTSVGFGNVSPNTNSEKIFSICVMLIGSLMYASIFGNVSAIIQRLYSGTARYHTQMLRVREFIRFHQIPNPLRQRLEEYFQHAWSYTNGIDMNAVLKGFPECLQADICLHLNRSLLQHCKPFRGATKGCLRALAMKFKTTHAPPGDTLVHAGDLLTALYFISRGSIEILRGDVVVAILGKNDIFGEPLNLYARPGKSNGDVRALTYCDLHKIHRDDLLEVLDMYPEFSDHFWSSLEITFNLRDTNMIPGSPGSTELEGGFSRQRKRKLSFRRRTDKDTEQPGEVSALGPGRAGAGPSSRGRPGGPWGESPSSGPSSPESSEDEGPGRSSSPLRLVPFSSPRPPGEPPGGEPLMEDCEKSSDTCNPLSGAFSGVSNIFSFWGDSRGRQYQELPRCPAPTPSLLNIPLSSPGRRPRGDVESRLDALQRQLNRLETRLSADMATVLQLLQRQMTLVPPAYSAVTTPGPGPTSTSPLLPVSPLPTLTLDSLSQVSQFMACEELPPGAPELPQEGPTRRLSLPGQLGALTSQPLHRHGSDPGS
Briefly: Whole cell patch clamp, HEK 293 T-REx HERG cells. Conditions: estimated by Hill fit with hill=1, ymax=100; tested at 10 μM, n=2; read-out: IC50 (μM) hERG. It is filed as cell-based. An excerpt:
For this experiment HEK 293 T-REx HERG cells (#23) were used. This cell line made by IonGate is characterized by the inducible expression of the hERG gene. The T-REx™ System (Invitrogen, Karlsruhe, Germany) is a tetracycline-regulated mammalian expression system that uses regulatory elements from the E. coli Tn10-encoded tetracycline (Tet) resistance operon. In the absence of Tet the expression is repressed. Tetracycline regulation in the T-REx™ System is based on the binding of tetracycline to the Tet repressor and derepression of the promoter controlling expression of the hERG gene. Addition of Tet to the cell culture media results in expression of the hERG potassium channel.
To construct the HEK 293 T-REx HERG cell line, the hERG gene was ligated into the inducible expression vector pcDNA4/TO (→pc4TO-HERG) and transfected into HEK 293 T-REx cells (this cell line stably expresses the Tet repressor and was purchased at Invitrogen). Stable cell clones were isolated after selection with Blasticidin (5 μg/ml) and Zeocin™ (300 μg/ml). The clones were electrophysiological characterized after induction with 1 μg/ml Tet.
Experiments were performed using the patch clamp set-up. Technical equipment needed for manipulation of the cells was placed on a vibration-isolated table and shielded with a Faraday cage to minimize electrical noise. The amplifier and control system were placed in a rack outside the Faraday cage. The system consisted of an EPC9 or EPC10 patch clamp amplifier (HEKA, Lambrecht, Germany), and the perfusion system DADVC8 (ALA Scientific, New York, USA) controlled by the Pulse software package (HEKA, Lambrecht, Germany) installed on a personal computer.
The cells used for this experiment were kept in continuous culture under standard conditions (37° C., air supplemented with 5% CO2). The HEK 293 T-REx HERG cells were kept in minimal essential medium (MEM) supplemented with 100 U/ml Penicillin, 100 μg/ml Streptomycin, 10% fetal calf serum (FCS), 1% non-essential amino acids (NEAA), 2.5 μg/ml amphotericin, 300 μg/ml Zeocin™ and 5 μg/ml Blasticidin. Cells were passed every 3-4 days after detachment using a Trypsin solution. The quality of the cultured cells was guaranteed by vitality and contamination tests. The culture of the cells was performed as described in protocol D described above.
At least 18 hours prior to electrophysiological experiments the cells were detached by application of iced PBS (phosphate buffered saline) or Trypsin and replated on cover slips. 1 μg/ml Tet was added to the cells to induce hERG expression.
Activity of the cardiac hERG channel was investigated using the patch clamp technique in its whole cell mode. This means that the current needed for clamping the whole cell expressing the K^+-channel protein to a specific potential was measured. The pipettes used for patch clamping were made of borosilicate glass. Measurements were performed at room temperature (20-25° C.). In each experiment (i.e. each cell) only one concentration of the compound was investigated no cumulative dosages were performed. Each cell acted as its own control. […]
After the whole cell configuration was established a series of pulses was applied to check for hERG expression and to optimize amplifier settings. However, only the following measurements were used for data analysis: 15 test pulses (FIG. 4a and Table 6a) were applied at 0.1 Hz (series 1) under constant superfusion with bath solution. The protocol was initiated by a leak test at −40 mV (50 ms). […] The maximum hERG tail current amplitude was measured at −40 mV (tail current test, 1.5 sec.). Only cells generating tail current amplitudes between 300 pA and 10 nA were used for the experimental procedure.
After successful characterization of the current another 10 test pulses were applied at 0.1 Hz while the cell was superfused with bath solution (series 2). […]
As for `COc1ccccc1Nc1nc(C)c(C(=O)N[C@@H]2CCC[C@H]2OCc2ccccc2)s1` [Compound 31, 2-(2-methoxy-phenylamino)-4-methyl-thiazole-5-carboxylic acid (1R,2R)-2-(benzyloxycyclopent-1-yl) amide], the IC50 is 25.3 µM.

For the compound `Cc1nc(Nc2ccc(Cl)cc2)sc1C(=O)N[C@H](C)c1ccc2ccccc2c1` [Compound 52, 2-(4-chloro-phenylamino)-4-methyl-thiazole-5-carboxylic acid (R)-1-(2-naphtalen-2-yl-ethyl)-amide], the IC50 is 24.2 µM. Still for that read-out and setting: the same measure for `COc1ccccc1Nc1nc(C)c(C(=O)N[C@H]2CCC[C@@H]2OCc2ccccc2)s1` [Compound 68, 2-(2-methoxy-phenylamino)-4-methyl-thiazole-5-carboxylic acid (1S,2S)-2-(benzyloxycyclopent-1-yl) amide]: 7.95 µM; for `COc1ccccc1Nc1nc(C)c(C(=O)N[C@@H](C)c2ccc3ccccc3c2)s1` [Compound 55, 2-(2-methoxy-phenylamino)-4-methyl-thiazole-5-carboxylic acid (S)-1-(2-naphtalen-2-yl-ethyl)-amide]: 10.2 µM; for `COc1ccc(CNC(=O)c2sc(Nc3ccc(Br)cc3)nc2C)cc1` [Compound 60, 2-(4-bromo-phenylamino)-4-methyl-thiazole-5-carboxylic acid 4-methoxy-benzylamide]: 3 µM.

Consider `Cc1nc(Nc2ccc(Br)cc2)sc1C(=O)N[C@@H](C)c1ccc2ccccc2c1` [Compound 18, 2-(4-bromo-phenylamino)-4-methyl-thiazole-5-carboxylic acid (S)-1-(naphthalen-2-yl)ethyl amide], for which the IC50 was 26.5 µM. Turning to `Cc1nc(Nc2ccc(Br)cc2)sc1C(=O)NCc1ccc(N(C)C)cc1` [Compound 64, 2-(4-bromo-phenylamino)-4-methyl-thiazole-5-carboxylic acid 4-dimethylamino-benzylamide], the IC50 was greater than 100 µM. In the case of `Cc1nc(Nc2ccc(Cl)cc2)sc1C(=O)N[C@@H]1CCC[C@H]1OCc1ccccc1` [Compound 30, 2-(4-chloro-phenylamino)-4-methyl-thiazole-5-carboxylic acid (1R,2R)-2-(benzyloxycyclopent-1-yl) amide], the IC50 was 11 µM. Same read-out and setting: then `Cc1nc(Nc2ccc(Br)cc2)sc1C(=O)N[C@H](C)c1ccc2ccccc2c1` [Compound 19, 2-(4-bromo-phenylamino)-4-methyl-thiazole-5-carboxylic acid (R)-1-(naphthalen-2-yl)ethyl amide], with 90 µM.

The same data set, now with this note: patch clamp; read-out: hERG IC50.
`Cc1nc(Nc2ccc(Cl)cc2)sc1C(=O)N[C@H](C)c1ccc2ccccc2c1` [Compound 52, 2-(4-chloro-phenylamino)-4-methyl-thiazole-5-carboxylic acid (R)-1-(2-naphtalen-2-yl-ethyl)-amide]: the concentration for half-maximal inhibition (IC50) stood at 24.2 µM. `Cc1nc(Nc2ccc(Br)cc2)sc1C(=O)NCc1ccc(N(C)C)cc1` [Compound 64, 2-(4-bromo-phenylamino)-4-methyl-thiazole-5-carboxylic acid 4-dimethylamino-benzylamide]: the IC50 is greater than 100 µM. Same read-out and setting: the same measure for `Cc1nc(Nc2ccc(Cl)cc2)sc1C(=O)N[C@@H]1CCC[C@H]1OCc1ccccc1` [Compound 30, 2-(4-chloro-phenylamino)-4-methyl-thiazole-5-carboxylic acid (1R,2R)-2-(benzyloxycyclopent-1-yl) amide]: 11 µM.

The data set is the same for the next values; noted with them: percent value, test concentration not given.
In the case of `COc1ccccc1Nc1ccc(C(=O)N[C@H]2CCC[C@@H]2OCc2ccccc2)s1` [Compound 75, 2-(2-methoxy-phenylamino)-thiophene-5-carboxylic acid ((1S,2S)-2-benzyloxycyclopent-1-yl) amide], the hERG was found to be 76%. `Cc1nc(Nc2cccc3cccnc23)sc1C(=O)N[C@H]1CCC[C@@H]1OCc1ccccc1` [Compound 94, 4-methyl-2-(quinolin-8-ylamino)-thiazole-5-carboxylic acid ((1S,2S)-2-benzyloxycyclopent-1-yl) amide] came in with a hERG of 69%. In turn, `Cc1nc(Nc2ccc3c(c2)OCCO3)sc1C(=O)N[C@H]1CCC[C@@H]1OCc1ccccc1` [Compound 95] yielded a hERG of 76%. Take `COc1ccccc1Nc1nccc(C(=O)N[C@H]2CCC[C@@H]2OCc2ccccc2)n1` [Compound 76, 2-(2-methoxy-phenylamino)-pyrimidine-4-carboxylic acid ((1S,2S)-2-benzyloxycyclopent-1-yl) amide]: the hERG is listed as 34%. On to `Cc1nc(Sc2ccccc2)sc1C(=O)N[C@H]1CCC[C@@H]1OCc1ccccc1` [Compound 81, 4-methyl-2-phenylsulfanyl-thiazole-5-carboxylic acid ((1S,2S)-2-benzyloxycyclopent-1-yl) amide], for which the hERG is given as 88%.

`COc1ccccc1Nc1nc(C)c(C(=O)NCc2ccc(Br)cc2)s1` [Compound 108, 2-(2-methoxy-phenylamino)-4-methyl-thiazole-5-carboxylic acid 4-bromo-benzylamide] showed a hERG of 19%. Still for that read-out and setting: then `COc1ccccc1Nc1nc(C)c(C(=O)NCc2ccc(C(C)(C)C)cc2)s1` [Compound 106, 2-(2-methoxy-phenylamino)-4-methyl-thiazole-5-carboxylic acid 4-tert-butyl-benzylamide], with 31%.
